The results in this text go back to patent US10526320B2, “Pyrrolidine derivatives as PPAR agonists” (GUANGDONG RAYNOVENT BIOTECH CO., LTD., priority 2016, dated 2020).

Where two headings read alike, the source gives them in different places.

Common to all, as to assay type: cell-based
Assay [1] has as its target T1, PPAR Gamma (Homo sapiens, UniProt P37231).
T1 sequence (P37231 1-505): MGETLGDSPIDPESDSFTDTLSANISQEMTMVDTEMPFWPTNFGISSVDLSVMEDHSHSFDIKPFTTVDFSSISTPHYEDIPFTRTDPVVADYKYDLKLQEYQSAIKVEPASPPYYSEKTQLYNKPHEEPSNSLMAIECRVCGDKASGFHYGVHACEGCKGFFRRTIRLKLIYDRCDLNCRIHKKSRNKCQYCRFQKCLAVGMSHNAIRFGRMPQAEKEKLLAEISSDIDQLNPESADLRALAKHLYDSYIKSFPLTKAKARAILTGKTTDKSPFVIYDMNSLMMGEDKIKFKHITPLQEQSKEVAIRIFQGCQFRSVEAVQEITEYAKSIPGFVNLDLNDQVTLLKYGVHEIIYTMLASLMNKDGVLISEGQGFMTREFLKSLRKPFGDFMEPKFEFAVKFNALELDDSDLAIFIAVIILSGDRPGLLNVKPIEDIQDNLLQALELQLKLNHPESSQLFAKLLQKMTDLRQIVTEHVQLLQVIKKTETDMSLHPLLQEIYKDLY
Briefly: PathHunter NHR protein interaction / nuclear translocation agonist test, PPAR Gamma. The note with it: for Emax: read-out: PPAR Gamma Maximum Activation Response %.

Assay [2] deals with T2, PPAR Alpha (Homo sapiens, UniProt Q07869).
T2 sequence (Q07869 1-468): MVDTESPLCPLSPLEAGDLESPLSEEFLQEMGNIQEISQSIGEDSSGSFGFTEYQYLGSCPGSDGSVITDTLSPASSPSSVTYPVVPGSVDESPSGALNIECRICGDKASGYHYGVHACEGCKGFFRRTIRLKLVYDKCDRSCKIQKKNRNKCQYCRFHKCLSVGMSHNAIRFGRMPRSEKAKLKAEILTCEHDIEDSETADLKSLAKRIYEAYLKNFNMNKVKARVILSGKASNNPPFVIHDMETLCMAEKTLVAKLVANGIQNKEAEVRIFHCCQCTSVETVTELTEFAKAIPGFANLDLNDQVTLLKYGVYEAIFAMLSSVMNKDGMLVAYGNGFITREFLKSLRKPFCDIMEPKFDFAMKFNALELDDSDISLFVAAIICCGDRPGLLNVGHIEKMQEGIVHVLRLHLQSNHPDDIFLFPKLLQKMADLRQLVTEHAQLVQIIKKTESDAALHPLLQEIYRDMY
As to the kind of experiment: PathHunter NHR protein interaction / nuclear translocation agonist test, PPAR Alpha. Conditions: for Emax: read-out: PPAR Alpha Maximum Activation Response %.

Assay [3] addresses T3, PPAR Delta (Homo sapiens, UniProt Q03181).
T3 sequence (Q03181 1-441): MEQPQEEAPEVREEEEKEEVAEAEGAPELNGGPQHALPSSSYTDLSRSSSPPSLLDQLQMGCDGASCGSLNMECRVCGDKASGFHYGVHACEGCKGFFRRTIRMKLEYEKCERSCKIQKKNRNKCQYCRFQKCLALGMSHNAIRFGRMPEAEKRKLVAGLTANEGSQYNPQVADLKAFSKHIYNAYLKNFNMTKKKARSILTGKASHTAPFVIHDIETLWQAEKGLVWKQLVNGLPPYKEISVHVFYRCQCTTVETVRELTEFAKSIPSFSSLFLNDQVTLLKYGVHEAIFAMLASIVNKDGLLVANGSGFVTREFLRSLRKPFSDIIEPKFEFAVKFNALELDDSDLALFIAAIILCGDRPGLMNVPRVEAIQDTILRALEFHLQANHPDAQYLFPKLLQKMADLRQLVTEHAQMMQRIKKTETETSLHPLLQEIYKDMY
Briefly: PathHunter NHR protein interaction / nuclear translocation agonist test, PPAR Delta. Conditions: for Emax: read-out: PPAR Delta Maximum Activation Response %.

Where [4] appears, read: agonist mode, read-out: PPAR Gamma EC50.
The mark [5] stands for this setting: agonist mode, read-out: PPAR Alpha EC50.
The mark [6] stands for this setting: relative to known PPARγ agonist Troglitazone = 100%.
Setting [7] is: agonist mode, read-out: PPAR Delta EC50.
Setting [8] is: relative to known PPARδ agonist L-165,041 = 100%.

As for `CSc1ccc(C(=O)/C=C/c2cc(C)c(OC(C)(C)C(=O)O)c(C)c2)cc1` [GFT-505, Elafibranor, reference compound], the EC50 in assay [1] (setting [4]) and in assay [2] (setting [5]) was greater than 250 nM in each case. Also, the results for the Emax in assay [1], in assay [2] and in assay [3] were 50 to 80%, 80 to 100% and 50 to 80%, respectively.
For `CSc1ccc(C(=O)[C@H]2CN(C(=O)Oc3ccc(C)nc3)C[C@@H]2Cc2cc(C)c(OC(C)(C)C(=O)O)c(C)c2)cc1` (racemic) [Compound 53], the EC50 is greater than 250 nM in assay [1] (PPAR Gamma EC50 nM), 100 to 150 nM in assay [2] (PPAR Alpha EC50 nM) and 100 to 150 nM in assay [3] (PPAR Delta EC50 nM). Moreover, the Emax in assay [1] lay in the range of 80 to 100%; in assay [2] it was 80 to 100%; in assay [3], 50 to 80%.
On to `Cc1cc(CCC2CN(C(=O)Oc3ccccc3)CC2C(=O)c2ccc(Cl)s2)cc(C)c1OC(C)(C)C(=O)O` (single isomer, unassigned) [Compound 47], for which the EC50 in assay [1] (setting [4]) is 150 to 200 nM; in assay [2] (setting [5]), less than 100 nM; in assay [3] (setting [7]) it was less than 100 nM. The Emax in assay [1] (setting [6]), in assay [2] and in assay [3] (setting [8]) was 80 to 100% each time.
On to `Cc1cc(CC2CN(C(=O)Oc3ccccc3)CC2C(=O)c2ccc(F)cc2)cc(C)c1OC(C)(C)C(=O)O` (single isomer, unassigned) [Compound 69], for which the EC50 in assay [1] (setting [4]) was 150 to 200 nM; in assay [2] (setting [5]), less than 100 nM; in assay [3] (setting [7]) it was less than 100 nM. Further, the Emax in assay [1] (setting [6]), in assay [2] and in assay [3] (setting [8]) was 80 to 100% in each case.
As for `CSc1ccc(C(=O)C2CN(C(=O)Oc3ccccc3)CC2Cc2cc(C)c(OC(C)(C)C(=O)O)c(C)c2)cc1` (stereo not shown) [Compound 26], the results for the EC50 in assay [1] (PPAR Gamma EC50 nM), in assay [2] (PPAR Alpha EC50 nM) and in assay [3] (setting [7]) were greater than 250 nM, less than 100 nM and less than 100 nM, respectively. Also, the Emax in assay [3] was in the range of 50 to 80%.
In the case of `CSc1ccc(C(=O)C2CN(C(=O)Oc3ccccc3)CC2CCc2ccc(OC(C)(C)C(=O)O)cc2)cc1` (single isomer, unassigned) [Compound 80], the EC50 in assay [1] (setting [4]) is greater than 250 nM; in assay [2] (setting [5]), less than 100 nM; in assay [3] (setting [7]), 150 to 200 nM. For the same molecule, the Emax in assay [1] (setting [6]), in assay [2] and in assay [3] (setting [8]) was 80 to 100% each time.
As to `CSc1ccc(C(=O)[C@H]2CNC[C@@H]2CCc2cc(C)c(OC(C)(C)C(=O)O)c(C)c2)cc1` (racemic) [Compound 56], the figures for the EC50 in assay [1] (setting [4]), in assay [2] (setting [5]) and in assay [3] (setting [7]) were greater than 250 nM, greater than 250 nM and 200 to 250 nM, respectively. Also, the Emax in assay [1] is less than 50%; in assay [2], less than 50%; in assay [3], 50 to 80%.
Take `CSc1ccc(C(=O)C2CN(C(=O)OC(C)C)CC2CCc2cc(C)c(OC(C)(C)C(=O)O)c(C)c2)cc1` (single isomer, unassigned) [Compound 58]: the figures for the EC50 in assay [1] (setting [4]), in assay [2] (setting [5]) and in assay [3] (setting [7]) were 200 to 250 nM, 100 to 150 nM and less than 100 nM, respectively. In addition, the Emax in assay [1] was in the range of 50 to 80%; in assay [2], 80 to 100%; in assay [3] it was 50 to 80%.
For `CSc1ccc(C(=O)C2CN(C(=O)Oc3ccccc3)CC2Cc2ccc(OC(C)(C)C(=O)O)c(C)c2)cc1` (single isomer, unassigned) [Compound 77], the EC50 was greater than 250 nM in assay [1] (setting [4]), 150 to 200 nM in assay [2] (setting [5]) and 150 to 200 nM in assay [3] (setting [7]). Moreover, the Emax in assay [1] (setting [6]), in assay [2] and in assay [3] (setting [8]) was 80 to 100% in each case.
Take `CSc1ccc(C(=O)C2CN(C(=O)Oc3ccccc3)CC2Cc2ccc(OC(C)(C)C(=O)O)cc2)cc1` (single isomer, unassigned) [Compound 76]: the EC50 in assay [1] (setting [4]) was greater than 250 nM; in assay [2] (setting [5]) it was 100 to 150 nM; in assay [3] (setting [7]), 100 to 150 nM. Further, the Emax in assay [1] (setting [6]), in assay [2] and in assay [3] (setting [8]) was 80 to 100% in each case.
As for `COC(=O)N1CC(CCc2cc(C)c(OC(C)(C)C(=O)O)c(C)c2)C(C(=O)c2ccc(SC)cc2)C1` (single isomer, unassigned) [Compound 57], the EC50 in assay [1] (setting [4]) was 200 to 250 nM; in assay [2] (setting [5]), less than 100 nM; in assay [3] (setting [7]), less than 100 nM. Moreover, the figures for the Emax in assay [1], in assay [2] and in assay [3] were 50 to 80%, 80 to 100% and 50 to 80%, respectively.
For the molecule `Cc1cc(CC2CN(C(=O)Oc3ccccc3)CC2C(=O)c2ccc(Cl)cc2)cc(C)c1OC(C)(C)C(=O)O` (single isomer, unassigned) [Compound 70], the EC50 was 150 to 200 nM in assay [1] (setting [4]), less than 100 nM in assay [2] (setting [5]) and less than 100 nM in assay [3] (setting [7]). Further, the Emax in assay [1] (setting [6]), in assay [2] and in assay [3] (setting [8]) was 80 to 100% throughout.
Turning to `CSc1ccc(C(=O)C2CN(C(=O)Oc3ccccc3)CC2CCc2ccc(OC(C)(C)C(=O)O)c(F)c2)cc1` (single isomer, unassigned) [Compound 82], the EC50 in assay [1] (setting [4]) was 200 to 250 nM; in assay [2] (setting [5]), less than 100 nM; in assay [3] (setting [7]) it was 100 to 150 nM. In addition, the Emax in assay [1] (setting [6]), in assay [2] and in assay [3] (setting [8]) was 80 to 100% in each case.
As to `CSc1ccc(C(=O)[C@H]2CN(C)C[C@@H]2CCc2cc(C)c(OC(C)(C)C(=O)O)c(C)c2)cc1` (racemic) [Compound 55], the EC50 in assay [1] (PPAR Gamma EC50 nM) is greater than 250 nM; in assay [2] (PPAR Alpha EC50 nM) it was greater than 250 nM; in assay [3] (PPAR Delta EC50 nM), 200 to 250 nM. Also, the Emax in assay [1] is less than 50%; in assay [2] it was less than 50%; in assay [3], 50 to 80%.
For the molecule `COC(=O)N1C[C@@H](C(=O)c2ccc(SC)cc2)[C@H](c2cc(C)c(OC(C)(C)C(=O)O)c(C)c2)C1` (single isomer, unassigned) [Compound 5], the EC50 in assay [1] (setting [4]) was greater than 250 nM; in assay [2] (setting [5]), greater than 250 nM; in assay [3] (setting [7]), 100 to 150 nM. For the same molecule, the Emax was less than 50% in assay [1] and 50 to 80% in assay [3]. For the same molecule, the “PPAR Alpha Maximum Activation Response %” value in assay [2] was “I (key: 100% ≥ I ≥ 80%; 80% ≥ II ≥ 50%; III < 50%)”.
As to `CSc1ccc(C(=O)C2CN(C(=O)Oc3ccc(Cl)cc3)CC2c2cc(C)c(OC(C)(C)C(=O)O)c(C)c2)cc1` (single isomer, unassigned) [Compound 14], the EC50 in assay [1] (setting [4]) is greater than 250 nM; in assay [2] (setting [5]) it was less than 100 nM; in assay [3] (setting [7]) it was less than 100 nM.
For `Cc1cc(CCC2CN(C(=O)Oc3ccccc3)CC2C(=O)c2ccc(Cl)cc2)cc(C)c1OC(C)(C)C(=O)O` (single isomer, unassigned) [Compound 65], the figures for the EC50 in assay [1] (setting [4]), in assay [2] (setting [5]) and in assay [3] (setting [7]) were 200 to 250 nM, less than 100 nM and less than 100 nM, respectively. Besides, the Emax in assay [3] lay within 80 to 100%.
Take `Cc1cc(CCC2CN(C(=O)Oc3ccccc3)CC2C(=O)c2ccc(Cl)cc2)cc(C)c1OC(C)(C)C(=O)O` (single isomer, unassigned) [Compound 66]: the EC50 in assay [1] (setting [4]) was 150 to 200 nM; in assay [2] (setting [5]), less than 100 nM; in assay [3] (setting [7]), less than 100 nM. In assay [3], the “PPAR Delta Maximum Activation Response %” value is listed as “I (key: 100% ≥ I ≥ 80%; 80% ≥ II ≥ 50%; III < 50%)”.
Consider `CSc1ccc(C(=O)C2CN(C(=O)Oc3ccccc3)CC2Cc2ccc(OC(C)(C)C(=O)O)c(F)c2)cc1` (single isomer, unassigned) [Compound 78], for which the EC50 in assay [1] (setting [4]) was greater than 250 nM; in assay [2] (setting [5]), 100 to 150 nM; in assay [3] (setting [7]), 100 to 150 nM. For the same molecule, the Emax in assay [1] (setting [6]), in assay [2] and in assay [3] (setting [8]) was 80 to 100% each time.
As to `Cc1cc(CC[C@H]2CN(C(=O)Oc3ccccc3)C[C@@H]2C(=O)c2ccc(S(C)(=O)=O)cc2)cc(C)c1OC(C)(C)C(=O)O` (racemic) [Compound 68], the EC50 in assay [1] (setting [4]) and in assay [3] (setting [7]) was greater than 250 nM each time. In addition, the Emax in assay [1] (setting [6]), in assay [2] and in assay [3] was 80 to 100% in each case.
